Test systems include 786-0 renal; ACHN renal; COLO 205 colon; HCT-15 colon; HT29 colon; IGROV1 ovarian; LXFL 529 NSCLC; MOLT-4 leukemia; NCI-H226 lung; NCI-H23 lung; NCI-H522 lung; OVCAR-4 ovarian; OVCAR-8 ovarian; RXF 393 renal; SR leukemia; TK-10 renal; UACC-257 melanoma; RPMI-8226 leukemia; DU-145 prostate; NCI/ADR-RES ovarian.
What all share (assay): NCI-60 cell line screen, 48 h

For 8 molecules, TGI results are on record in PubChem BioAssay (NCI).

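Briefly, cells in 96-well plates were exposed to five compound concentrations for 48 h, and endpoints were estimated by linear interpolation. TGI denotes the concentration required for complete inhibition of growth.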

On to `CC(=O)NC1=C(NCC(C)(C)C)C(=O)c2ccccc2C1=O`, for which the TGI was over 100 µM in the assay with 786-0 renal; 74.5 µM in the assay on ACHN renal; over 100 µM in the assay with COLO 205 colon; over 100 µM in the assay with HCT-15 colon; over 100 µM with HT29 colon; over 100 µM in the assay with IGROV1 ovarian. The TGI is over 100 µM in the assay with LXFL 529 NSCLC; over 100 µM in the assay with MOLT-4 leukemia; over 100 µM with NCI-H226 lung; over 100 µM in the assay on NCI-H23 lung; 49.7 µM with NCI-H522 lung; over 100 µM with OVCAR-4 ovarian. Besides, the TGI in the assay with OVCAR-8 ovarian, in the assay on RXF 393 renal, in the assay with SR leukemia, in the assay on TK-10 renal and in the assay on UACC-257 melanoma was over 100 µM each time.
For `CC1(C)CCc2ccc(OCCC(=O)O)cc2O1`, the TGI in the assay with ACHN renal, in the assay on COLO 205 colon, in the assay with HCT-15 colon, with HT29 colon, with IGROV1 ovarian and in the assay on LXFL 529 NSCLC was over 100 µM each time. Further, the TGI in the assay with MOLT-4 leukemia, in the assay on NCI-H226 lung, with NCI-H23 lung, in the assay with NCI-H522 lung, with OVCAR-4 ovarian and in the assay with OVCAR-8 ovarian was over 100 µM in each case. Further, the TGI in the assay with RPMI-8226 leukemia and in the assay with SR leukemia was over 100 µM throughout.
As to `O=C(CSC(=S)N1CCCCC1)Nc1nc2c(s1)CCCC2`, the TGI with 786-0 renal, with ACHN renal, in the assay on COLO 205 colon, in the assay on HCT-15 colon, with HT29 colon and in the assay on IGROV1 ovarian was over 100 µM each time. For the same molecule, the TGI in the assay with LXFL 529 NSCLC is over 100 µM; in the assay with MOLT-4 leukemia, 47.8 µM; with NCI-H226 lung, over 100 µM; with NCI-H23 lung, 92.7 µM; in the assay on NCI-H522 lung it was 65.7 µM; with OVCAR-4 ovarian it was over 100 µM. Also, the TGI with OVCAR-8 ovarian is over 100 µM; with RPMI-8226 leukemia it was over 100 µM; in the assay on SR leukemia it was over 100 µM; with TK-10 renal it was over 100 µM; in the assay with UACC-257 melanoma, 57.7 µM.
As to `Cc1c2n(c(=O)[nH]c1=O)C1OC(CO)C(O2)C1N=[N+]=[N-]` (centres undefined), the TGI with 786-0 renal, in the assay with ACHN renal, with COLO 205 colon, in the assay on HCT-15 colon, in the assay on HT29 colon and with IGROV1 ovarian was over 100 µM in each case. Further, the TGI in the assay on LXFL 529 NSCLC, in the assay on MOLT-4 leukemia, in the assay on NCI-H226 lung, in the assay on NCI-H23 lung, in the assay on NCI-H522 lung and in the assay with OVCAR-4 ovarian was over 100 µM throughout. Further, the TGI with OVCAR-8 ovarian, in the assay with RPMI-8226 leukemia, in the assay on SR leukemia, in the assay with TK-10 renal and in the assay with UACC-257 melanoma was over 100 µM each time.
Regarding `COc1cc2c(c(OC)c1O)-c1ccc(SC)c(=O)cc1C(NC(C)=O)CC2` (centres undefined), the TGI with 786-0 renal is over 100 µM; in the assay with ACHN renal, over 100 µM; in the assay on COLO 205 colon, 0.0209 µM; with HCT-15 colon, over 100 µM; in the assay with HT29 colon it was over 100 µM; with IGROV1 ovarian, over 100 µM. Besides, the TGI is over 100 µM in the assay on LXFL 529 NSCLC; over 100 µM in the assay with MOLT-4 leukemia; over 16.7 µM in the assay on NCI-H226 lung; 3.79 µM in the assay with NCI-H23 lung; over 100 µM in the assay with OVCAR-4 ovarian; over 100 µM in the assay on OVCAR-8 ovarian. The TGI in the assay on RPMI-8226 leukemia, in the assay on RXF 393 renal, with SR leukemia, with TK-10 renal and in the assay with UACC-257 melanoma was over 100 µM each time.
With `CC(C)(C)c1cc(C(=O)/C=C/c2c(Cl)cccc2Cl)cc(C(C)(C)C)c1O`, the TGI with 786-0 renal was 29.7 µM; in the assay on ACHN renal, 28.2 µM; in the assay with COLO 205 colon it was 32 µM; in the assay on DU-145 prostate, over 96.2 µM; with HCT-15 colon, 27.9 µM; in the assay with HT29 colon, 26.3 µM. The TGI with IGROV1 ovarian was over 100 µM; with MOLT-4 leukemia it was over 56.5 µM; in the assay with NCI-H226 lung, 35.2 µM; with NCI-H23 lung it was 48.9 µM; with NCI-H522 lung, 17.5 µM; in the assay with NCI/ADR-RES ovarian, 77.9 µM. Moreover, the TGI in the assay on OVCAR-4 ovarian is over 100 µM; with OVCAR-8 ovarian it was over 100 µM; in the assay on RPMI-8226 leukemia, 21.3 µM; in the assay with RXF 393 renal, 14.9 µM; with SR leukemia, over 37 µM; in the assay with TK-10 renal, 41.5 µM. In the assay with UACC-257 melanoma, this molecule came in with a TGI of 17.6 µM.
Take `C1=CC2C=CC(C=C1)P2c1ccccc1` (centres undefined): the TGI with 786-0 renal, in the assay with ACHN renal, in the assay with COLO 205 colon, in the assay on DU-145 prostate, with HCT-15 colon and in the assay with HT29 colon was over 100 µM throughout. The TGI in the assay with IGROV1 ovarian, with MOLT-4 leukemia, with NCI-H226 lung, in the assay with NCI-H23 lung, in the assay on NCI-H522 lung and in the assay on NCI/ADR-RES ovarian was over 100 µM in each case. In addition, the TGI in the assay on OVCAR-4 ovarian, in the assay with OVCAR-8 ovarian, with RPMI-8226 leukemia, in the assay on RXF 393 renal, in the assay on SR leukemia and in the assay with TK-10 renal was over 100 µM in each case. The same molecule had a TGI with UACC-257 melanoma of over 100 µM.
As to `CN(C)CCCN1c2ccc([N+](=O)[O-])cc2CCc2cccc([N+](=O)[O-])c21`, the TGI worked out at 26.5 µM with 786-0 renal; 31.5 µM in the assay on ACHN renal; 28.6 µM in the assay on COLO 205 colon; 31.2 µM in the assay on DU-145 prostate; 30.5 µM in the assay with HCT-15 colon; 32.5 µM in the assay on HT29 colon. In addition, the TGI in the assay on IGROV1 ovarian is 29.7 µM; in the assay on MOLT-4 leukemia it was 51.5 µM; in the assay with NCI-H226 lung, 29.3 µM; in the assay with NCI-H23 lung, 31.2 µM; with NCI-H522 lung it was 32.1 µM; with NCI/ADR-RES ovarian, 30.4 µM. For the same molecule, the TGI was 13.9 µM in the assay on OVCAR-4 ovarian; 32.3 µM with OVCAR-8 ovarian; 98.7 µM in the assay with RPMI-8226 leukemia; 22.8 µM in the assay with RXF 393 renal; over 100 µM in the assay with SR leukemia; 23.2 µM in the assay with TK-10 renal. This molecule also returned a TGI with UACC-257 melanoma of 27.6 µM.
